“Also recorded” adds a separate entry of the source. No end group written: not given here.

These results are taken from US7884076B2, “Multipeptide regimen for the treatment of autistic spectrum, behavioral, emotional and visceral inflammation/autoimmune disorders” (The Trustees of Columbia University In the City of New York, priority 2003, dated 2011).

In experiment [1] the test system is c-fos protein expression in brain regions. Nature of the experiment: i.c.v. secretin, immunocytochemical detection of Fos in rat brain. Type of experiment: in vivo, Sprague-Dawley rats. The note with it: i.c.v. lateral ventricle, secretin vs PBS, perfused 3 hours after injection, region named in the value. An excerpt: The inventors obtained data in eight adult male Sprague-Dawley rats weighing 250-450 g. The rats were obtained from Hilltop Lab Animals, Inc. (Scottdale, Pa.). Under ketamine-xylazine anesthesia, using sterile techniques, a stainless steel guide cannula was stereotaxically inserted into the lateral ventricle of each rat. Each cannula was affixed in place with dental cement secured to the skull. To prevent clogging, a removable 27 gauge wire was inserted into the guide cannula. The placement of the cannula with reference to bregma was 1.4-mm lateral, 0.5-mm caudal, and a depth of 2.5 mm from the surface of the skull. The rats were allowed to recover for 4-5 days before the injections. During this time, both experimental and control rats were administered 0.01 ml/kg buprinorphine hydrochloride every 6 h to reduce pain. Injections were made in the lateral ventricle 5 mm from the surface of the skull, via a premeasured cannula attached by polyethylene tubing (PE20) to a 25 ILL Hamilton syringe containing either phosphate buffered saline (PBS) at pH 7.4 (n=4) or 10 ILg (n=1, pilot study) or 30 ILg (n=3) of secretin (Sigma, St. Louis, Mo.) dissolved in 5-10 ILL PBS. Secretin injections were performed between 11:00 A.M. and 1:00 P.M.
Three hours after the i.c.v. injection, rats were administered sodium pentobarbital and perfused transcardially with heparinized, physiological saline followed by a 4% solution of paraformaldehyde in sodium phosphate buffer, pH 7.4. Whole brains were removed and blocked. Identical procedures were followed in control (n=4) and experimental animals (n=4). Tissue blocks were postfixed for 2-3 h in individual glass vials containing 4% paraformaldehyde in 0.1 M phosphate buffer (PBS, pH 7.4) and cryoprotected overnight at 4° C. in a solution of 10% sucrose in 0.1 M PBS. Frozen sections were cut on a sliding microtome at 30 JLm in the transverse plane and every fourth section was processed immunocytochemically for c-fos protein. Tissues from control and experimental animals were processed simultaneously in the same solutions in order to control for potential variability in immunocytochemistry. All incubations were carried out in separate test wells on a Thomas rotator table. Tissues were collected in 0.1 M PBS (pH 7.4) in spot test wells and washed in Tris-buffered saline (TBS) between each step. Nonspecific binding sites were blocked by preincubating for 30 min in bovine serum albumin (BSA), diluted 1:30 in TBS. Thereafter, sections were incubated overnight in primary whole rabbit antiserum raised against Fos protein diluted 1:10,000 (Oncogene, Cambridge, Mass.). The antisera were diluted in TBS containing 0.1% BSA, to which 0.25% Triton X-100 was added to facilitate antibody penetration. […]

The test system is the same in experiment [2]. The description is as above. The note with it: secretin infusion into the fourth ventricle (Example 4). It is filed as in vivo, Sprague-Dawley rats.
For experiment [3], the system named is IL10-/- colitis, colon inflammation. As to the kind of experiment: IL-10-/- mouse colitis (genetic IBD), hematoxylin/eosin gut histology. It is filed as in vivo, C57B6 IL-10-/- mice. The note with it: I.P. infusion by Alzet pump, vs saline. An excerpt: An acquired IBD model was created by inducing Colitis in male Sprague-Dawley rats (n=10) with trinitrobenzene sulfonic acid (TNBS) enema. A genetic IBD model was also created using IL-10 mutant mice. IBD criteria was confirmed in both groups by analyzing numbers of lymphocytes and epithelial destruction, and concomitant cerebral metabolic activity patterns comparing regional induction of c-fos gene expression. Control rats (n=11) and control mice (n=5) were also maintained.
Both the acquired IBD (rat) and genetic IBD (mouse) groups were treated with a combined peptide therapy consisting of co-administration of secretin and oxytocin. The acquired IBD subjects were administered a combination of secretin and oxytocin (40 μg/100 μl i.v.×7-20 days two weeks after disease induction). The genetic IBD subjects were administered a combination of secretin and oxytocin (40 μg/100 μl i.v.×7-20 days at age 18 weeks).
Data were obtained in 21 adult male Sprague-Dawley rats weighing 250-450 g and in 14 C57B6 IL-10−/− mice. Rats were obtained from Hilltop Lab Animals, Inc. (Scottdale, Pa.) and housed at the New York State Psychiatric Institute Housing Facility. Mice were obtained from Jackson Laboratory (Bar Harbor, Me.) and housed at the Eye Institute Annex of Columbia University.
Sprague-Dawley rats (n=10) were anesthetized with ketamine and xylazine and administered a solution of trinitrobenzene sulfonic acid (TNBS). 0.5 ml of TNBS solution (100 μl TNBS 5% solution; 150 μl PBS; 250 μl 100% ethanol) […] was administered intrarectally (Dohi T, et al., '00). Control rats (n=11) were injected with phosphate buffered saline (PBS) solution alone. On days 0, 3 and 7, the TNBS enema was administered via a glass microsyringe equipped with a gastric intubation needle. The animals were treated at the following time intervals: […] after the TNBS treatment in the Sprague-Dawley rats and at 18 weeks of age in the IL-10−/− mice.
Animals were anesthetized with xylazine (7-10 mg/kg I.P.) and ketamine (60 mg/kg I.P.) prior to implantation of an Alzet pump (model #2002). […]

In the case of “secretin (HSDGTFTSELSRLRDSARLQRLLQGLV; not fully specified; ends and bridges not checked; UniProt P63298 33-59, looked up) [twenty-seven amino acid peptide and an enterogastrone; commercially available as SecreFlo]”, the “Fos immunoreactivity (c-fos expression) attenuated in brain regions” value was “attenuated Fos labeling; also recorded: attenuated c-fos expression of the parietal cortex” in experiment [1]; “attenuated Fos immunoreactivity in the dorsal periaqueductal gray, the intralamanar thalamus, the medial parvicellular hypothalamus, which synthesizes corticotrophin releasing hormone, the motor cortex, and the somatosensory and association areas of the parietal cortex” in experiment [1] (listed as Secretin). The “Fos immunoreactivity (c-fos expression) induced in brain regions” value was “c-fos induction in ependymal and subependymal nuclei lining the third ventricle; also recorded: most heavily concentrated along the medial bank of the prefrontal cortex, the orbitofrontal cortex, the anterior olfactory nucleus, and the piriform cortex; also recorded: Fos immunoreactivity in behavioral, endocrine, and autonomic areas; also recorded: activated the NTS and its projection fields in the reticular formation, diffuse projection systems and the mesolimbic network; also recorded: area postrema was also activated; also recorded: induced c-fos expression in the locus ceruleus (LC); also recorded: induced c-fos expression of ependymal (arrows) and subependymal cells lining the third ventricle (III); also recorded: induced c-fos expression of the piriform cortex” in experiment [1]; “altered numbers of Fos immunoreactive nuclei, mainly in visceral and limbic areas of the brain; also recorded: induced c-fos protein expression in the dorsal vagal complex, including the general afferent division of NTS and the dorsal motor nucleus; also recorded: Fos IR was concentrated throughout the area postrema and its subpostremal region of transition with the NTS and the commissural, medial parvicellular and periventricular subnuclei; also recorded: activated c-fos expression in cells in the intermediate reticular region of the lateral tegmental field; also recorded: induced c-fos expression in the locus ceruleus (FIG. 3), ventral periaqueductal gray, and the paraventricular thalamic nucleus; also recorded: the predominant labeling mapped to the paraventricular hypothalamic nucleus, mainly its periventricular region and magnocellular subdivision; also recorded: induced c-fos in the medial and central amygdala and the lateral septal complex” in experiment [1] (listed as Secretin). Further, in experiment [2], the brain regions activated result is “activated comparable brain regions; viscerothalamic and HPA stress axes, amygdala, and ependyma”. Moreover, the “colon inflammation / inflammatory infiltrates, hematoxylin and eosin histology” value in experiment [3] is given as “partial resolution of colon inflammation”; in experiment [3] (listed as S) it was “partial resolution of inflammation”; in experiment [3] (listed as Secretin), “dramatic increase in inflammatory infiltrate”.
